# Legend:
# CYP3A = experiment: Inhibitory effect on P450 enzymes in vitro (human liver microsomes), CYP3A; format: in vitro ADME; conditions: final concentration 10 µM; for inhibition at 5 min, 10 µM: probe midazolam, substrate midazolam, read-out: % inhibition rate CYP3A (midazolam); for inhibition at 10 min, 10 µM: probe testosterone, substrate testosterone, read-out: % inhibition rate CYP3A (testosterone)
# Protocol: (§1) 1.1 Preparation of compounds: The compounds prepared in the examples were each dissolved in dimethylsulfoxide to give solutions at a concentration of 2 mmol/L.
# (§2) 1.2 Test methods: • 1) Incubation system: human liver microsomes, a MgCl2 solution, a phosphate buffer solution, and a substrate solution were each added a 96-well deep-well plate and mixed homogenously. In the final incubation system, the concentration of the human liver microsomes was 0.2 mg/mL, and the final concentrations of the MgCl2 solution and the phosphate buffer solution were 5 mM and 100 mM, respectively. • 2) 1 µL of the substrate solution was added to the incubation system, and the final concentrations of CYP1A2 phenacetin, 2C8 paclitaxel […], 2C19 mephenytoin, 2D6 midazolam, and 3A midazolam substrates were 40 µM (phenacetin), 5 µM (paclitaxel), 50 µM (mephenytoin), 10 µM (mephenytoin), 5 µM (midazolam), and 50 µM […], respectively. • 3) 1 µL of the example compound or vehicle (DMSO) was added to the incubation system, and the incubation system was pre-warmed for 5 min in a 37 °C water bath before starting the reaction with 20 µL of 10 mM NADPH solution.
# (§3) 1.3 Sample treatment: Within the designated time (20 min for phenacetin, 10 min for paclitaxel, 20 min for mephenytoin, 20 min for dextromethorphan, 5 min for midazolam, and 10 min for testosterone), 400 µL of methanol containing the internal standard was added to terminate the reaction, and the mixture was vortexed and mixed homogeneously. Then, the deep-well plate was centrifuged at 3220 g and 4 °C for 40 min. 100 µL of the supernatant was transferred into a new plate, and 150 µL of purified water was added. The mixture was mixed homogenously for LC-MS/MS analysis. Table 11. Inhibitory effects of some compounds in the examples on CYP enzymes
# CYP1A2 = molecular target: T1, CYP1A2 (Homo sapiens, UniProt P05177); experiment: Inhibitory effect on P450 enzymes in vitro (human liver microsomes), CYP1A2; format: in vitro ADME; conditions: probe phenacetin, final concentration 10 µM, substrate phenacetin, read-out: % inhibition rate CYP1A2 (phenacetin)
# T1 construct: from tissue; host or cells: human liver microsomes
# T1 sequence (P05177 1-516): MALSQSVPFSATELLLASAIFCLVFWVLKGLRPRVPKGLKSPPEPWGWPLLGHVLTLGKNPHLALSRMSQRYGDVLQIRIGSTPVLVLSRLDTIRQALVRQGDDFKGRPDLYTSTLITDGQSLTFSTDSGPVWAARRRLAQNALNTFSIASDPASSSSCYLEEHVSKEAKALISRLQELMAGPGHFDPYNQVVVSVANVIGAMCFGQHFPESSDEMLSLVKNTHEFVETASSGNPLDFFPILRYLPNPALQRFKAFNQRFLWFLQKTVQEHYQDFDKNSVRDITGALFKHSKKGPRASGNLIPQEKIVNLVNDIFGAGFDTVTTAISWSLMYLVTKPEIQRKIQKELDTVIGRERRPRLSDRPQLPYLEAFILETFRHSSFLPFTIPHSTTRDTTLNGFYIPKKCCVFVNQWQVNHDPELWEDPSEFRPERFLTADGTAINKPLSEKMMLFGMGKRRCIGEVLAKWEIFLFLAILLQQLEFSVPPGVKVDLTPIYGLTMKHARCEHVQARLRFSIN
# Protocol: as §1, §2, §3
# CYP2D6 = molecular target: T2, CYP2D6 (Homo sapiens, UniProt P10635); experiment: Inhibitory effect on P450 enzymes in vitro (human liver microsomes), CYP2D6; format: in vitro ADME; conditions: probe dextromethorphan, final concentration 10 µM, substrate dextromethorphan, read-out: % inhibition rate CYP2D6 (dextromethorphan)
# T2 construct: from tissue; host or cells: human liver microsomes
# Protocol: as §1, §2, §3
# KAT8 = molecular target: T3, KAT8 (Homo sapiens, UniProt Q9H7Z6); experiment: Enzymatic activity assay for KAT8 acetyltransferase (TR-FRET); format: biochemical; conditions: KAT8 10 nM, AcCOA 2 µM
# T3 construct: purchased active motife (Active Motif) 81225
# T3 sequence (Q9H7Z6 1-458): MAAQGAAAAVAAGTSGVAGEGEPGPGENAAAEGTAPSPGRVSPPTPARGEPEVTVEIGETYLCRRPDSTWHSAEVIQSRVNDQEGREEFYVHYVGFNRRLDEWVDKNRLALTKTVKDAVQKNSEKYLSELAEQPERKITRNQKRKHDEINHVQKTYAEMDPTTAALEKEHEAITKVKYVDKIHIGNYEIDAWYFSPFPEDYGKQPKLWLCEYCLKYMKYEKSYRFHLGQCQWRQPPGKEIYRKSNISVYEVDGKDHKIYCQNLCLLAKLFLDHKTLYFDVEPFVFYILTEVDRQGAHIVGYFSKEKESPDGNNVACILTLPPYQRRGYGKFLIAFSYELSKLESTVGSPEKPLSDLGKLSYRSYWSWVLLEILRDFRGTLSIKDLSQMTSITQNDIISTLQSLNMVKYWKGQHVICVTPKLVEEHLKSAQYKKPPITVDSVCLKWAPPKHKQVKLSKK
# Protocol: The acetylation effects of KAT6B on histone substrate H3, as well as KAT5, KAT7, and KAT8 on histone substrate H4, were determined using the TR-FRET (time-resolved fluorescence resonance energy transfer) method. The determination was performed according to experimental procedures similar to those in "Pharmacological Experiment I": 1.2 Preparation of compounds: The compounds prepared in the examples were each dissolved in dimethylsulfoxide to give solutions at a concentration of 10 mmol/L. • 1) The compounds in the examples were each diluted from 10 mmol/L stock solution to 0.2 mmol/L, i.e., 1 µL of the compound was added to 49 µL of DMSO, and 3-fold dilution was performed to give 10 concentrations. • 2) 50 nL of the test compounds were transferred to 384 reaction plates using Echo, two replicates for each compound, and the plates were centrifuged at a rotation speed of 1000 rpm for 1 min, the final concentration of dimethylsulfoxide (DMSO) being 0.5%.
# For KAT8: • 3) 2.5 µL of the KAT8 enzyme solution at a final concentration of 10 nM was added to the 384 reaction plates in step 2), and the plates were centrifuged at 1000 rpm for 1 min and incubated at 25 °C for 10 min. • 4) 2.5 µL of […] at a final concentration of 300 nM and an AcCOA (acetyl-CoA) reaction solution at a final concentration of 2 µM were added to the 384 reaction plates in step 3), and the plates were centrifuged at a rotation speed of 1000 rpm for 1 min and incubated at 25 °C for 90 min. • 5) 5 µL of Eu-Ab& Ulight-SA detection solution was separately added to the 384 reaction plates in step 4) of the 4 groups described above, and the plates were centrifuged at 1000 rpm for 1 min and incubated at 25 °C for 60 min. • 6) The HTRF […] signals were read using a BMG high-throughput drug-screening multi-mode microplate reader.
# The acetylation levels of the histones in the groups were analyzed by the GraphPad Prism 8 software. […]
# T2 sequence (P10635 whole entry): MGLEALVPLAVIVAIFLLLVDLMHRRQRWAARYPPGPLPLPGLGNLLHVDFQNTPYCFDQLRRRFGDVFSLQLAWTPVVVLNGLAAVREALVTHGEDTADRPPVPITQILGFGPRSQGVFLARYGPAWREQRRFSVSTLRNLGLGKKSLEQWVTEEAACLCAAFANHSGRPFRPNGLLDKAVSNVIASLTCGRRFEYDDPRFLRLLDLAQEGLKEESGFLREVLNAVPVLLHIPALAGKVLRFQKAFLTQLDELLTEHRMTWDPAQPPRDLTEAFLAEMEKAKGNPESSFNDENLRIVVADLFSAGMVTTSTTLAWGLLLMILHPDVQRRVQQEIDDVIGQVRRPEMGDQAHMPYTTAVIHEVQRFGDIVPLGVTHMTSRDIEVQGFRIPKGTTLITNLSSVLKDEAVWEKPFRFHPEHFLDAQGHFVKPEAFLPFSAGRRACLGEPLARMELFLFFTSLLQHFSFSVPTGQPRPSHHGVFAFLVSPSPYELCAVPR
smiles,measurement,setting,value
"COc1cc2c(cc1S(=O)(=O)Nc1noc3cc(Cn4cccn4)nc(OC)c13)CCCC2 [Example 2, N-(6-((1H-Pyrazol-1-yl)methyl)-4-methoxyisoxazolo[4,5-c]pyridin-3-yl)-3-methoxy-5,6,7,8-tetrahydronaphthalene-2-sulfonamide]","inhibition at 5 min, 10 µM",CYP3A,-5.22%
same,"inhibition at 10 min, 10 µM",CYP3A,5.84%
same,"inhibition at 20 min, 10 µM",CYP1A2,6.02%
same,"inhibition at 20 min, 10 µM",CYP2D6,5.38%
same,IC50,KAT8,118 nM
"COc1ccc2ccoc2c1S(=O)(=O)Nc1noc2cc(Cn3cccn3)nc(OC)c12 [Example 10, N-(6-((1H-Pyrazol-1-yl)methyl)-4-methoxyisoxazolo[4,5-c]pyridin-3-yl)-6-methoxybenzofuran-7-sulfonamide]","inhibition at 5 min, 10 µM",CYP3A,-4.28%
same,"inhibition at 10 min, 10 µM",CYP3A,-2.93%
same,"inhibition at 20 min, 10 µM",CYP1A2,-1.78%
same,"inhibition at 20 min, 10 µM",CYP2D6,6.03%
same,IC50,KAT8,79.4 nM
"COc1cc2c(cc1S(=O)(=O)Nc1noc3cc(Cn4cccn4)nc(OC)c13)OCC2 [Example 59, N-(6-((1H-Pyrazol-1-yl)methyl)-4-methoxyisoxazolo[4,5-c]pyridin-3-yl)-5-methoxy-2,3-dihydrobenzofuran-6-sulfonamide]","inhibition at 5 min, 10 µM",CYP3A,-12.1%
same,"inhibition at 10 min, 10 µM",CYP3A,-7.66%
same,"inhibition at 20 min, 10 µM",CYP1A2,1.93%
same,"inhibition at 20 min, 10 µM",CYP2D6,4.62%
same,IC50,KAT8,327 nM

# — EP4692094A1 (Beijing Konruns Pharmaceutical Co., Ltd., priority 2023, dated 2024)
